Drawing on US9487510B2, “Substituted heterocyclic acetamides as kappa opioid receptor (KOR) agonists” (Dr. Reddy's Laboratories Ltd., priority 2012, dated 2016), this text covers EC50 for 19 compounds.

The structures appear in SMILES notation.

This experiment addresses human KOR receptor (Homo sapiens, UniProt P41145). The experiment in a line: IP-One HTRF assay, potency of KOR agonists, dose-response in transiently transfected COS-7 cells. The class given is cell-based.

Chain of human KOR receptor (P41145 whole entry): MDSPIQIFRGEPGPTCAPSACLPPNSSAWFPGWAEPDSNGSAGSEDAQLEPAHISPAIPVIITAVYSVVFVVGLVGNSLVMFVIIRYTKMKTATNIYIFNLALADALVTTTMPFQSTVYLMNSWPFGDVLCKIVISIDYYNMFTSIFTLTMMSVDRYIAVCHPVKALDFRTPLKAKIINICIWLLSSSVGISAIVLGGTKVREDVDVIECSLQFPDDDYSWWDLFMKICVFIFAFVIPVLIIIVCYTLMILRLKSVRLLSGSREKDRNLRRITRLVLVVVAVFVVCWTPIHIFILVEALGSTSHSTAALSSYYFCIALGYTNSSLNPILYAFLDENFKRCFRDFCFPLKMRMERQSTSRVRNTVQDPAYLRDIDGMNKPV

Compound `O=C1CSc2ccc(CC(=O)N[C@H](CN3CC[C@H](O)C3)c3ccccc3)cc2N1` [Example 128, N-((S)-2-((S)-3-hydroxypyrrolidin-1-yl)-1-phenylethyl)-2-(3-oxo-3,4-dihydro-2H-benzo[b][1,4]thiazin-6-yl)acetamide] gave an EC50 of at most 50 nM.

The compound `CN(C(=O)Cc1ccc2c(c1)NC(=O)CS2)[C@H](CN1CCCC1)c1ccccc1` [Example 129, (S)-N-methyl-2-(3-oxo-3,4-dihydro-2H-benzo [b][1,4]thiazin-6-yl)-N-(1-phenyl-2-(pyrrolidin-1-yl)ethyl)acetamide] came in with an EC50 of at most 50 nM.

For the compound `CN(C(=O)Cc1ccc2c(c1)NC(=O)CS2)C(CN1CC[C@H](O)C1)C1CCOCC1` (stereo partly drawn) [Example 130, N-(2-((S)-3-hydroxypyrrolidin-1-yl)-1-(tetrahydro-2H-pyran-4-yl)ethyl)-N-methyl-2(3-oxo-3,4-dihydro-2H-benzo[b][1,4]thiazin-6-yl)acetamide], the half-maximal effective concentration (EC50) is at most 50 nM.

`COc1cccc([C@@H](CN2CC[C@H](O)C2)N(C)C(=O)Cc2ccc3c(c2)NC(=O)CS3)c1` [Example 131, N-((S)-2-((S)-3-hydroxypyrrolidin-1-yl)-1-(3-methoxyphenyl)ethyl)-N-methyl-2-(3-oxo-3,4-dihydro-2H-benzo[b][1,4]thiazin-6-yl)acetamide] registered an EC50 of at most 50 nM.

In the case of `CN(C(=O)Cc1ccc2c(c1)NC(=O)CS2)[C@H](CN1CC[C@H](O)C1)c1cccc(C(F)(F)F)c1` [Example 132, N-((S)-2-((S)-3-hydroxypyrrolidin-1-yl)-1-(3-(trifluoromethyl)phenyl)ethyl)-N-methyl-2-(3-oxo-3,4-dihydro-2H-benzo[b][1,4]thiazin-6-yl)acetamide], the EC50 is at most 50 nM.

`CN(C(=O)Cc1ccc2c(c1)NC(=O)CS2)[C@H](CN1CC[C@H](O)C1)c1cccc(F)c1` [Example 133, N-((S)-1-(3-fluorophenyl)-2-((S)-3-hydroxypyrrolidin-1-yl)ethyl)-N-methyl-2-(3-oxo-3,4-dihydro-2H-benzo[b][1,4]thiazin-6-yl)acetamide]: the EC50 was at most 50 nM.

In turn, `CN(C(=O)Cc1ccc2c(c1)NC(=O)CS2)[C@H](CN1CC[C@H](O)C1)c1cccc(OC(F)(F)F)c1` [Example 134, N-((S)-2-((S)-3-hydroxypyrrolidin-1-yl)-1-(3-(trifluoromethoxy)phenyl)ethyl)-N-methyl-2-(3-oxo-3,4-dihydro-2H-benzo[b][1,4]thiazin-6-yl)acetamide] came in with a 50% effective concentration (EC50) of at most 50 nM.

For the compound `CN(C(=O)Cc1ccc2c(c1)N(Cc1ccccc1)S(=O)(=O)C2)[C@H](CN1CC[C@H](O)C1)c1ccccc1` [Example 135, 2-(1-benzyl-2,2-dioxido-1,3-dihydrobenzo[c]isothiazol-6-yl)-N-((S)-2-((S)-3-hydroxypyrrolidin-1-yl)-1-phenylethyl)-N-methylacetamide], the EC50 is at most 50 nM.

Turning to `CCCN(C(=O)Cc1ccc2c(c1)NC(=O)CS2(=O)=O)[C@H](CN1CC[C@H](O)C1)c1cccc(OC(F)(F)F)c1` [Example 137, 2-(1,1-dioxido-3-oxo-3,4-dihydro-2H-benzo[b][1,4]thiazin-6-yl)-N-((S)-2-((S)-3-hydroxypyrrolidin-1-yl)-1-(3-(trifluoromethoxy)phenyl)ethyl)-N-propylacetamide], the EC50 was at most 50 nM.

In the case of `CC(C)N(C(=O)Cc1ccc2c(c1)NC(=O)CS2(=O)=O)[C@H](CN1CC[C@H](O)C1)c1cccc(OC(F)(F)F)c1` [Example 138, 2-(1,1-dioxido-3-oxo-3,4-dihydro-2H-benzo[b][1,4]thiazin-6-yl)-N-((S)-2-((S)-3-hydroxypyrrolidin-1-yl)-1-(3-(trifluoromethoxy)phenyl)ethyl)-N-isopropylacetamide], the EC50 lay in the range of 51 to 100 nM.

The compound `O=C1CS(=O)(=O)c2ccc(CC(=O)N(C3CC3)[C@H](CN3CC[C@H](O)C3)c3cccc(OC(F)(F)F)c3)cc2N1` [Example 139] gave an EC50 of at most 50 nM.

In the case of `CN(C(=O)Cc1ccc2c(c1)NC(=O)C(C)(C)S2)[C@H](CN1CC[C@H](O)C1)c1cccc(OC(F)(F)F)c1` [Example 143, 2-(2,2-dimethyl-3-oxo-3,4-dihydro-2H-benzo[b][1,4]thiazin-6-yl)-N-((S)-2-((S)-3-hydroxypyrrolidin-1-yl)-1-(3-(trifluoromethoxy)phenyl)ethyl)-N-methylacetamide], the EC50 is at most 50 nM.

For `CN(C(=O)Cc1ccc2c(c1)NC(=O)CS2(=O)=O)[C@H](CN1CC[C@H](O)C1)c1cccc(OCC(F)(F)F)c1` [Example 144, 2-(1,1-dioxido-3-oxo-3,4-dihydro-2H-benzo [b][1,4]thiazin-6-yl)-N-((S)-2-((S)-3-hydroxypyrrolidin-1-yl)-1-(3-(2,2,2-trifluoroethoxy)phenyl)ethyl)-N-methylacetamide], the EC50 was at most 50 nM.

Compound `Cc1cccc([C@@H](CN2CC[C@H](O)C2)N(C)C(=O)Cc2ccc3c(c2)NC(=O)CS3(=O)=O)c1` [Example 145, 2-(1,1-dioxido-3-oxo-3,4-dihydro-2H-benzo [b][1,4]thiazin-6-yl)-N-((S)-2-((S)-3-hydroxypyrrolidin-1-yl)-1-(m-tolyl)ethyl)-N-methylacetamide] had an EC50 of at most 50 nM.

With `CN(C(=O)Cc1ccc2c(c1)NC(=O)CS2(=O)=O)[C@H](CN1CC[C@H](O)C1)c1ccc(F)c(OC(F)(F)F)c1` [Example 146, 2-(1,1-dioxido-3-oxo-3,4-dihydro-2H-benzo[b][1,4]thiazin-6-yl)-N-((S)-1-(4-fluoro-3-(trifluoromethoxy)phenyl)-2-((S)-3-hydroxypyrrolidin-1-yl)ethyl)-N-methylacetamide], the EC50 was at most 50 nM.

`CN(C(=O)Cc1ccc2c(c1)NC(=O)C(C)(C)S2(=O)=O)[C@H](CN1CC[C@H](O)C1)c1cccc(OC(F)(F)F)c1` [Example 148, 2-(2,2-dimethyl-1,1-dioxido-3-oxo-3,4-dihydro-2H-benzo[b][1,4]thiazin-6-yl)-N-((S)-2-((S)-3-hydroxypyrrolidin-1-yl)-1-(3-(trifluoromethoxy)phenyl)ethyl)-N-methylacetamide] yielded an EC50 of at most 50 nM.

Take `CN(C(=O)Cc1ccc2c(c1)NC(=O)CS2(=O)=O)[C@H](CN1CC[C@H](O)C1)c1cc(F)cc(OCC(F)(F)F)c1` [Example 149, 2-(1,1-dioxido-3-oxo-3,4-dihydro-2H-benzo[b][1,4]thiazin-6-yl)-N-((S)-1-(3-fluoro-5-(2,2,2-trifluoroethoxy)phenyl)-2-((S)-3-hydroxypyrrolidin-1-yl)ethyl)-N-methylacetamide]: the EC50 is at most 50 nM.

For the compound `CN(C(=O)Cc1ccc2c(c1)NC(=O)CS2)[C@H](CN1CC[C@H](O)C1)c1cccc(C#N)c1` [Example 152, N-((S)-1-(3-cyanophenyl)-2-((S)-3-hydroxypyrrolidin-1-yl)ethyl)-N-methyl-2-(3-oxo-3,4-dihydro-2H-benzo[b][1,4]thiazin-6-yl)acetamide], the EC50 is at most 50 nM.

Regarding `CN(C(=O)Cc1ccc2c(c1)NC(=O)CO2)[C@H](CN1CC[C@H](O)C1)c1cccc(C#N)c1` [Example 153, N-((S)-1-(3-cyanophenyl)-2-((S)-3-hydroxypyrrolidin-1-yl)ethyl)-N-methyl-2-(3-oxo-3,4-dihydro-2H-benzo[b][1,4]oxazin-6-yl)acetamide], the EC50 is at most 50 nM.
